Results as given in the NIST ThermoML archive (doi:10.1016/j.fluid.2014.12.029).
Numbers after ± are expanded uncertainties.

What was measured:
[1] = Boiling temperature at pressure P; details: Liquid, Ebulliometric method (Recirculating still)
[2] = Liquid; for mass density: 298.15 K, 101.33 kPa, Pycnometric method; for Normal boiling temperature: Ebulliometric method (Recirculating still)
[3] = refractive index (Na D-line) (dimensionless); details: 298.15 K; 101.33 kPa; Liquid; Standard Abbe refractometry

Compound | Boiling temperature at pressure P ([1]; 8.01 kPa) [°C] | Boiling temperature at pressure P ([1]; 20 kPa) [°C] | Boiling temperature at pressure P ([1]; 30 kPa) [°C] | Boiling temperature at pressure P ([1]; 34.84 kPa) [°C] | Boiling temperature at pressure P ([1]; 39.85 kPa) [°C] | Boiling temperature at pressure P ([1]; 50 kPa) [°C] | Boiling temperature at pressure P ([1]; 55.02 kPa) [°C] | mass density [2] [kg/m3] | Normal boiling temperature [2] [°C] | refractive index [3]
CCCCOCOC [1-(methoxymethoxy)-butane] | 49.24 ± 0.21 | 70.88 ± 0.2 | 81.73 ± 0.2 | 85.81 ± 0.2 | 89.66 ± 0.2 | 96.50 ± 0.2 | 99.39 ± 0.2 | 837.1 ± 0.8 | 119.44 ± 0.2 | 1.387 ± 0.0007
CCCO [propan-1-ol] | – | – | – | – | – | – | – | 799.3 ± 0.7 | 97.16 ± 0.2 | 1.3833 ± 0.0007
CCCCO [butan-1-ol] | – | – | – | – | – | – | – | 805.2 ± 0.7 | – | 1.3967 ± 0.0007
